From US8946275B2, “Treatment of cancer using hypoxia activated prodrugs” (Threshold Pharmaceuticals, Inc., priority 2008, dated 2015)
≈ marks a conversion by molar mass, not a printed value. Read-outs that look alike come from different tables or passages of the source.

What was measured:
[1] = tested on: orthotopic prostate cancer PC-3 cells; assay: Orthotopic PC-3 prostate cancer model, TH-302 with Taxol; type: in vivo, mice; details: single agents: Taxol 12 mg/kg; TH-302 30 or 50 mg/kg
Procedure: TH-302 was tested as monotherapy and in combination with Taxol (paclitaxel) in animals bearing highly invasive and metastatic orthotopic prostate cancer PC-3 cells. Animals were randomized into 6 groups of 8 mice each and then treated either with vehicle; Taxol (12 mg/kg, IV, twice a week for 4 consecutive weeks); TH-302 (30 or 50 mg/kg, IP, once a day for 5 days a week for 2 consecutive weeks); or Taxol in combination with TH-302 (using the same single agent regimens).

Solubility of TH-302 = type: physicochemical; details: organic solvent or mixture
[2] = tested on: PC-3 human prostate cancer cells; assay: PC-3 ectopic xenograft, TH-302/docetaxel dosing schedules; type: in vivo, nude mice; details: single agent, TH-302 150 mg/kg ip once or Docetaxol 10 mg/kg iv once
[3] = tested on: small cell lung cancer (SCLC); assay: TH-302 monotherapy in patients with lung cancer (SCLC); type: in vivo, human
Procedure: Eight subjects with SCLC have been treated with TH-302 monotherapy at initial doses of 480 mg/m^2 to 670 mg/m^2 as part of a 3 consecutive week dosing regimen repeated every 4 weeks (this excludes one subject dosed at 60 mg/m^2 during the initial dose escalation). RECIST tumor assessments were performed initially for seven subjects. […] One of the seven subjects continued on-study for additional cycles of treatment.
In this study, a person suffering from a lung cancer (a refractory small cell lung cancer) that had metastasized to liver was treated as follows. Lyophilized TH-302 was diluted with D5W and administered to the patient at an amount of 480 mg/m^2, according to the following 4 week dosing cycle: TH-302 was administered once every week for 3 weeks, on days 1, 8, and 15, followed by a week of no TH-302 administration. The patient was administered 2 cycles (i.e. 6 doses) of TH-302, and the lung and liver cancers assessed by a computed tomography (or CT) scan. […] LDH had decreased 72%, and liver function tests had normalized.

[4] = tested on: H460 human non-small cell lung cancer; assay: H460 ectopic xenograft, TH-302/docetaxel dosing schedules; type: in vivo, nude mice; details: single agent, TH-302 100 mg/kg ip once or Docetaxol 10 mg/kg iv once
Procedure: (§1) Anti-tumor activity was evaluated by tumor growth delay (TGD) and tumor growth inhibition (TGI). Body weight change, gross and microscopic assessment of tissue changes, and hematologic assays served for toxicity assessment. Testing in these models was conducted generally as follows. 1×10^6 (H460 human non-small cell lung cancer or HT1080 human fibrosarcoma cells) or 3×10^6 (PC-3 human prostate cancer cells) were implanted in the subcutaneous space of the right flank to obtain ectopic xenograft models. Randomization and dosing was initiated when tumors reached a certain size (100-150 mm^3). API grade of TH-302 was used in all experiments while docetaxel, gemcitabine, cisplatin, pemetrexed, and doxorubicin were purchased from commercial sources.
The H460 cells were prepared in 30% Matrigel and 70%. RPMI1640. Mice were anesthetized by isoflurane and were implanted subcutaneously with 1×10^6 cells (in 200 μl) at the flank position. We selected 110 mice bearing similar size tumors (˜100 mm^3) for the study. Mice bearing similar tumor size were randomly assigned into different groups. Treatment started on day 1 (7 days after tumor implantation) except as noted. […] Animals were observed daily and tumor measurements and body weights recorded twice weekly.

[5] = Phase 1 clinical trial of TH-302 monotherapy, dose escalation; type: in vivo, human
Procedure: A Phase 1 clinical trial was conducted with TH-302. The starting dose was 7.5 mg/m^2 IV over 30-60 min administered once weekly for 3 weeks of a 4 week cycle. A modified accelerated titration design was used.

H460 NSCLC cells = assay: H460 ectopic xenograft, TH-302/pemetrexed dosing schedules; type: in vivo, nude mice; details: single agent, TH-302 100 mg/kg ip Q7Dx2 or PMX 150 mg/kg ip Q7Dx2
Procedure: as §1
The H460 cells were prepared in 30% Matrigel and 70%. RPMI1640. Mice were anesthetized by isoflurane and were implanted subcutaneously with 1×10^6 cells (in 200 μl) at the flank position. We selected 110 mice bearing similar size tumors (˜100 mm^3) for the study. Mice bearing similar tumor size were randomly assigned into different groups. Treatment started on day 1 (7 days after tumor implantation) except as noted. TH-302 was administered intraperitoneally (IP) at 150 mg/kg, and docetaxel was administered intravenously (IV) at 10 mg/kg. Animals were observed daily and tumor measurements and body weights recorded twice weekly.
In a study conducted substantially as described above except the cells implanted were H460 NSCLC cells and 1×10^6 cells were implanted and mice were randomized into separate groups when their tumors reached ˜100 mm^3 and the chemotherapeutic employed was pemetrexed at a dose of 150 mg/kg given once a week (Q7D) for two weeks IP and the TH-302 was given at 100 mg/kg given once a week (Q7D) for two weeks IP. […]

[6] = 480-670 mg/m^2, weekly x3 every 4 weeks, seven subjects assessed
[7] = one refractory SCLC patient, 480 mg/m^2, 2 cycles

Cn1c(COP(=O)(NCCBr)NCCBr)cnc1[N+](=O)[O-] [TH-302, (2-bromoethyl)({[(2-bromoethyl)amino][(2-nitro-3-methylimidazol-4-yl)methoxy]phosphoryl})amine]
Primary tumor growth during the treatment period [1]: significantly inhibited primary tumor growth | solubility (Solubility of TH-302; ethanol, even at higher temperatures, read-out: Highest solubility of TH-302 in ethanol): ~80 mg/mL (≈ 178 mM) | solubility (Solubility of TH-302; ethanol/TWEEN 80 or ethanol/TWEEN 80/DMA, depending on the ratio, read-out: Solubility of TH-302): ≤ 300 mg/mL | Days to 500 mm^3 [2]: 25 days | T/C [2]: 48.7% | TGD500, Days (vs. vehicle) [2]: 9 days | TGI [2]: 51.3% | Tn (tumor volume on Day n) ([2]; in mm³): 559.95 | Partial responses (RECIST) [3, 6]: Two of seven subjects | Stable disease (RECIST) [3, 6]: three of these same seven subjects | Decrease in sum of the longest diameters [SLD] of target lesions [3, 7]: 44% | LDH decrease [3, 7]: 72% | Reduction in area of cancer in lung and liver [3, 7]: over 50% | Response ([3]; three other patients with lung cancer (one NSCLC, 2 SCLC)): stable disease | Days to 500 mm^3 [4]: 21 days | Days to 1000 mm^3 [4]: 31 days | T/C [4]: 42.5% | TGD500, Days (vs. vehicle) [4]: 8 days | TGD1000, Days (vs. vehicle) [4]: 11 days | TGI [4]: 57.5% | Tn (tumor volume on Day n) ([4]; in mm³): 531.74 | Dose limiting toxicity (DLT) ([5]; 575 mg/m^2 weekly x3 of 4 week cycle): five of the six patients did not exhibit a DLT | Dose limiting toxicity (DLT) ([5]; 670 mg/m^2 weekly x3 of 4 week cycle): Two of five patients | Dose limiting toxicity ([5]; 940 mg/m^2 once every three weeks): two of six subjects have had a dose limiting toxicity | Patients with stable disease ([5]; Phase 1 monotherapy, all doses): 16 patients | Dose limiting toxicities ([5]; dose escalation study, monotherapy): mucositis with one grade 3 event involving the oral mucosa and one grade 3 event involving the gastrointestinal mucosa | Hematologic toxicity ([5]; monotherapy): mild and limited | Skin and mucosal toxicity ([5]; monotherapy): skin and mucosal toxicity was common at doses above 240 mg/m^2 | MTD ([5]; once every three week dosing): 670 mg/m^2 | MTD ([5]; once per week for three weeks of a four week cycle): 575 mg/m^2 | Days to 500 mm^3 (H460 NSCLC cells): 19 days | Days to 1000 mm^3 (H460 NSCLC cells): 30 days | T/C (H460 NSCLC cells): 49.7% | TGD500, Days (vs. vehicle) (H460 NSCLC cells): 7 days | TGD1000, Days (vs. vehicle) (H460 NSCLC cells): 9 days | TGI (H460 NSCLC cells): 50.3% | Tn (tumor volume on Day n) (H460 NSCLC cells): 598.34
